Data as given in patent US20200054651A1, “COMPOSITIONS AND METHODS FOR MODULATING PPP2R1A” (The Regents of the University of California, priority 2017, published 2020).
pEC50, pIC50: −log10 of the molar value.

Key:
[1] = test system: siPPP2R1A 231MFP cells; assay: Proliferation of siPPP2R1A knockdown 231MFP cells; type: cell-based; conditions: 48 h after 48 h siRNA transfection
Source text: PPP2R1A was transiently knocked down with siRNA using previously described methods (Benjamin et al., 2014). siRNA for a scrambled RNA oligonucleotide control and pooled RNA oligonucleotides targeting PPP2R1A were purchased from Dharmacon.

[2] = biological target: T1, C377 of PPP2R1A (Homo sapiens, UniProt P30153); assay: Competitive isoTOP-ABPP in 231MFP proteomes in vitro; type: binding
T1 construct: pre-incubating withaferin A (10 μM) for 30 min in 231MFP breast cancer cell proteomes; endogenous in cells; host or cells: 231MFP breast cancer cells (MDA-MB-231 derived)
Description: IsoTOP-ABPP studies were performed using the methods described in “Nature 534(7608), 570-574 (2016)” by Backus K. M., et al. and “Nature 468(7325), 790-795 (2010)” by Weerapana E., et al. Proteome samples diluted in PBS were treated with Withaferin A or vehicle for 30 minutes at 37° C. Then, IAyne (iodoacetamide-alkyne) labeling was performed for 1 hour at room temperature. CuAAC was used by sequential addition of tris(2-carboxyethyl)phosphine (1 mM), tris[(1-benzyl-1H-1,2,3-triazol-4-yl)methyl]amine (34 μM), copper (II) sulfate (1 mM), and biotin-linker-azide where the linker was functionalized with a TEV protease recognition sequence along with an isotopically light or heavy valine for treatment of control or treated proteome, respectively. After click reactions, proteomes were precipitated by centrifugation at 6500×g, washed in ice-cold methanol, combined in a 1:1 control/treated ratio, washed again, then denatured and re-solubilized by heating in 1.2% SDS/PBS to 80° C. for 5 minutes. Insoluble components were precipitated by centrifugation at 6500×g and soluble proteome was diluted in 0.2% SDS/PBS (5 ml). Labeled proteins were bound to avidin-agarose beads (170 μl re-suspended beads/sample) while rotating overnight at 4° C. Bead-linked proteins were enriched by washing three times each in PBS and water, then re-suspended in urea/PBS (6 M), reduced in TCEP (1 mM), alkylated with iodoacetamide (18 mM), then washed and re-suspended in urea/PBS (2 M), and finally trypsinized overnight with 0.5 μg/μl sequencing grade trypsin. Tryptic peptides were eluted off. Beads were washed in PBS (3 times) and water (3 times), washed in TEV buffer solution (water, TEV buffer, 100 μM dithiothreitol), and re-suspended in buffer with Ac-TEV protease and then incubated overnight. Peptides were diluted in water, acidified with formic acid (1.2 M), and prepared for analysis.
Peptides from all proteomic experiments were pressure-loaded onto an Agilent 600 series RP-HPLC system equipped with a capillary tubing (250 mm) packed with Aqua C18 reverse-phase resin (4 cm). The system was previously equilibrated with a gradient (0% B to 100% B over 10 minutes, 100% B for 5 minutes, then 0% B for 5 minutes; buffer A: 95:5 water:acetonitrile, 0.1% formic acid; buffer B: 80:20 acetonitrile:water, 0.1% formic acid). The samples were then attached using a MicroTee PEEK 360 μm fitting to a laser pulled column (13 cm) packed with Aqua C18 reverse-phase resin (10 cm) and strong-cation exchange resin (3 cm) for isoTOP-ABPP studies. Samples were analyzed using an Q Exactive Plus mass spectrometer using a 5-step Multidimensional Protein Identification Technology (MudPIT) program. […]

[3] = test system: cysteines profiled in 231MFP cells; assay: isoTOP-ABPP proteome-wide selectivity; type: binding; conditions: 100 μM, out of >1000 cysteines profiled
Description: IsoTOP-ABPP studies were performed using the methods described in “Nature 534(7608), 570-574 (2016)” by Backus K. M., et al. and “Nature 468(7325), 790-795 (2010)” by Weerapana E., et al. Proteome samples diluted in PBS were treated with Withaferin A or vehicle for 30 minutes at 37° C. Then, IAyne (iodoacetamide-alkyne) labeling was performed for 1 hour at room temperature. CuAAC was used by sequential addition of tris(2-carboxyethyl)phosphine (1 mM), tris[(1-benzyl-1H-1,2,3-triazol-4-yl)methyl]amine (34 μM), copper (II) sulfate (1 mM), and biotin-linker-azide where the linker was functionalized with a TEV protease recognition sequence along with an isotopically light or heavy valine for treatment of control or treated proteome, respectively. After click reactions, proteomes were precipitated by centrifugation at 6500×g, washed in ice-cold methanol, combined in a 1:1 control/treated ratio, washed again, then denatured and re-solubilized by heating in 1.2% SDS/PBS to 80° C. for 5 minutes. […]
Peptides from all proteomic experiments were pressure-loaded onto an Agilent 600 series RP-HPLC system equipped with a capillary tubing (250 mm) packed with Aqua C18 reverse-phase resin (4 cm). […] Samples were analyzed using an Q Exactive Plus mass spectrometer using a 5-step Multidimensional Protein Identification Technology (MudPIT) program. […]

[4] = test system: 231MFP breast cancer cells; assay: 231MFP cell proliferation (Hoechst staining); type: cell-based; conditions: 48 h; for cell proliferation: 231MFP
[5] = biological target: T2, pure human PPP2R1A protein (Homo sapiens, UniProt P30153); assay: Gel-based ABPP, competition against IAyne labeling; type: binding; conditions: for pIC50: 30 min at 37° C. pre-treatment, IAyne labeling; for competition against IAyne labeling of pure human PPP2R1A: 30 min pre-incubation
T2 construct: purchased Origene
Description: Gel-based ABPP methods were performed using the methods described in “Chem Biol 22(10), 1394-1405 (2015)” by Medina-Cleghorn D., et al. Recombinant pure human proteins were purchased from Origene. Pure proteins were pre-treated with DMSO, Withaferin A, or acrylamide or chloroacetamide compounds (e.g., DKM 2-90 or JNS 1-40) for 30 minutes at 37° C. in an incubation volume of PBS (50 μL), and were subsequently treated with IAyne (10 μM final concentration) for 30 minutes at room temperature. CuAAC was performed to append rhodamine-azide onto IAyne probe-labeled proteins. The samples were separated by SDS/PAGE and scanned using a ChemiDoc MP. Inhibition of target labeling was assessed by densitometry using ImageStudio Light software.

[6] = test system: 231MFP breast cancer cells; assay: 231MFP serum-free cell survival (Hoechst staining); type: cell-based; conditions: 48 h

T2 sequence (P30153 whole entry): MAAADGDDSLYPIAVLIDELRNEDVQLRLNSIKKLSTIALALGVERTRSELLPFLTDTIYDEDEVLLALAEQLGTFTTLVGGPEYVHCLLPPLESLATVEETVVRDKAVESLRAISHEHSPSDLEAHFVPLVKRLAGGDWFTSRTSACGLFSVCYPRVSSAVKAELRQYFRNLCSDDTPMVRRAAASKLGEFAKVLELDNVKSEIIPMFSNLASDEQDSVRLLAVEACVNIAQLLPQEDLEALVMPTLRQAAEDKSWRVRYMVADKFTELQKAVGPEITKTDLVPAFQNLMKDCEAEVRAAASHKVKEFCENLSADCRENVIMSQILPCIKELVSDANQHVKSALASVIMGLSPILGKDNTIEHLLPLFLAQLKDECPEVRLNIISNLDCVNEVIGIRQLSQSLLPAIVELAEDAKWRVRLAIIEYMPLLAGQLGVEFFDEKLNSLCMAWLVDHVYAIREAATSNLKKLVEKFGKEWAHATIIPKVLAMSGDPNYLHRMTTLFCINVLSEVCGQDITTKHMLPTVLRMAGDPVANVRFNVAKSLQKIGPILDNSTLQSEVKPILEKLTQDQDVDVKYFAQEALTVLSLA
T1 sequence (P30153 whole entry): as above

Row | SMILES | anti-proliferative effect in siPPP2R1A versus siControl cells ([1]; 100 μM) | isotopically light to heavy ratio, C377 of PPP2R1A ([2]; 100 μM, 30 min pre-treatment) | total sites showing >5 light to heavy ratio [3] | cell proliferation ([4]; 100 μM) | pIC50 [5] | competition against IAyne labeling of pure human PPP2R1A ([5]; gel-based ABPP) | serum-free cell survival ([6]; 100 μM) | improved potency towards PPP2R1A compared to DKM 2-90 ([5]; gel-based ABPP) [fold] | serum-free cell survival ([6]; 10 μM) | anti-proliferative effect in siPPP2R1A versus siControl cells ([1]; 10 μM) | isotopically light to heavy ratio, C377 of PPP2R1A ([2]; 10 μM, 30 min pre-incubation, IAyne 100 μM) | cell proliferation ([4]; 10 μM) | pEC50 ([4]; serum-containing media, Hoechst staining, read-out: 50% effective concentration (EC50), impairment of 231MFP cell proliferation)
1 | O=C(CCl)Nc1ccc2c(c1)OCCO2 [DKM 2-90, 2-Chloro-N-(2,3-dihydrobenzo[β][1,4]dioxin-6-yl)acetamide] | attenuation | quite selectively targeted C377 of PPP2R1A | 5 | lead compounds | 5.00 | confirming the competition | – | – | – | – | – | – | –
2 | O=C(CCl)N(Cc1ccccc1)c1ccc2c(c1)OCCO2 [JNS 1-40, N-benzyl-2-chloro-N-(2,3-dihydrobenzo[b][1,4]dioxin-6-yl)acetamide] | attenuated | > 5 | only target | impaired | 6.20 | – | impaired | 16 | – | – | – | – | –
3 | CC1=C(CO)C(=O)O[C@@H]([C@@H](C)[C@H]2CC[C@H]3[C@@H]4C[C@H]5O[C@]56[C@@H](O)C=CC(=O)[C@]6(C)[C@H]4CC[C@]23C)C1 [withaferin A, reference compound] | – | – | – | – | – | full competition | – | – | impairs | significantly attenuated the anti-proliferative effects | > 5 | impairs | 5.12
